From patent US7323444B2, “Use of kahalalide compounds for the manufacture of a medicament for the treatment of psoriasis” (Pharma Mar, S.A.U., priority 2003, dated 2008)

Key:
psoriasis = test system: psoriasis
Experimental: This phase I Clinical and Pharmacokinetic study was designed to determine the safety of Kahalalide F administered as a weekly infusion over 1 hour in patients with solid tumours. This trial was addressed to any solid tumours and was designed as a classical escalation. The patient was a patient with a psoriasis history since more than 40 years.

[1] = cited from earlier work
solid tumour cell lines = settings: preclinical studies, in vitro; cited from earlier work

For `C/C=C1\NC(=O)[C@H](Cc2ccccc2)NC(=O)[C@@H](C(C)C)NC(=O)[C@@H](C(C)CC)NC(=O)[C@H](NC(=O)[C@H](NC(=O)[C@H](CCCN)NC(=O)[C@H]2CCCN2C(=O)[C@H](NC(=O)[C@@H](NC(=O)C(NC(=O)[C@H](NC(=O)CCCC(C)C)C(C)C)[C@@H](C)O)C(C)C)C(C)C)C(C)CC)C(C)OC(=O)[C@H](C(C)C)NC1=O` (stereo partly shown) [kahalalide F], the “psoriasic symptoms after the first infusion” value (psoriasis; one patient, severe psoriasis, 650 μg/m^2 weekly iv infusion over 1 hour, after first infusion) was “quick improvement of the psoriasic symptoms”, the “remission of the cutaneous plaques with the following infusions” value (psoriasis; same patient, 650 μg/m^2 weekly, total of 7 infusions) was “nearly complete remission of the cutaneous plaques” and the “psoriasis status after end of treatment” value (psoriasis; same patient, two months after the last dose) was “still in a nearly complete remission situation”. For the same compound, the “maximum tolerated dose (MTD)” value ([1]; female mice, single bolus iv injection) was 0.28 mg/kg, the “acute toxicity on repeated administration” value ([1]; mice, 280 μg/kg once daily times five) was “without any apparent evidence of acute toxicity” and the “toxicity of single doses just above the MTDiv” value ([1]; mice, single iv doses just above MTD, signs of neurotoxicity followed by death) was “extremely toxic”. The “activity against solid tumour cell lines” value (solid tumour cell lines) was “significant activity”.
